Measured values published in patent US20090306133A1, “New Acetyl Coenzyme A Carboxylase (ACC) Inhibitors And Uses In Treatments Of Obesity And Diabetes Mellitus - 087” (ASTRAZENECA AB, priority 2007, published 2009).

What was measured:
[1] = biological target: Human recombinant Acetyl-CoA Carboxylase 2 (ACC2) (Homo sapiens, UniProt O00763); assay: Assay Y: ACC2 inhibition, inorganic phosphate (Malachite Green); assay type: biochemical; conditions: Assay Y: room temperature, 3 hr, 15 min preincubation
Sequence of Human recombinant Acetyl-CoA Carboxylase 2 (ACC2) (O00763 whole entry): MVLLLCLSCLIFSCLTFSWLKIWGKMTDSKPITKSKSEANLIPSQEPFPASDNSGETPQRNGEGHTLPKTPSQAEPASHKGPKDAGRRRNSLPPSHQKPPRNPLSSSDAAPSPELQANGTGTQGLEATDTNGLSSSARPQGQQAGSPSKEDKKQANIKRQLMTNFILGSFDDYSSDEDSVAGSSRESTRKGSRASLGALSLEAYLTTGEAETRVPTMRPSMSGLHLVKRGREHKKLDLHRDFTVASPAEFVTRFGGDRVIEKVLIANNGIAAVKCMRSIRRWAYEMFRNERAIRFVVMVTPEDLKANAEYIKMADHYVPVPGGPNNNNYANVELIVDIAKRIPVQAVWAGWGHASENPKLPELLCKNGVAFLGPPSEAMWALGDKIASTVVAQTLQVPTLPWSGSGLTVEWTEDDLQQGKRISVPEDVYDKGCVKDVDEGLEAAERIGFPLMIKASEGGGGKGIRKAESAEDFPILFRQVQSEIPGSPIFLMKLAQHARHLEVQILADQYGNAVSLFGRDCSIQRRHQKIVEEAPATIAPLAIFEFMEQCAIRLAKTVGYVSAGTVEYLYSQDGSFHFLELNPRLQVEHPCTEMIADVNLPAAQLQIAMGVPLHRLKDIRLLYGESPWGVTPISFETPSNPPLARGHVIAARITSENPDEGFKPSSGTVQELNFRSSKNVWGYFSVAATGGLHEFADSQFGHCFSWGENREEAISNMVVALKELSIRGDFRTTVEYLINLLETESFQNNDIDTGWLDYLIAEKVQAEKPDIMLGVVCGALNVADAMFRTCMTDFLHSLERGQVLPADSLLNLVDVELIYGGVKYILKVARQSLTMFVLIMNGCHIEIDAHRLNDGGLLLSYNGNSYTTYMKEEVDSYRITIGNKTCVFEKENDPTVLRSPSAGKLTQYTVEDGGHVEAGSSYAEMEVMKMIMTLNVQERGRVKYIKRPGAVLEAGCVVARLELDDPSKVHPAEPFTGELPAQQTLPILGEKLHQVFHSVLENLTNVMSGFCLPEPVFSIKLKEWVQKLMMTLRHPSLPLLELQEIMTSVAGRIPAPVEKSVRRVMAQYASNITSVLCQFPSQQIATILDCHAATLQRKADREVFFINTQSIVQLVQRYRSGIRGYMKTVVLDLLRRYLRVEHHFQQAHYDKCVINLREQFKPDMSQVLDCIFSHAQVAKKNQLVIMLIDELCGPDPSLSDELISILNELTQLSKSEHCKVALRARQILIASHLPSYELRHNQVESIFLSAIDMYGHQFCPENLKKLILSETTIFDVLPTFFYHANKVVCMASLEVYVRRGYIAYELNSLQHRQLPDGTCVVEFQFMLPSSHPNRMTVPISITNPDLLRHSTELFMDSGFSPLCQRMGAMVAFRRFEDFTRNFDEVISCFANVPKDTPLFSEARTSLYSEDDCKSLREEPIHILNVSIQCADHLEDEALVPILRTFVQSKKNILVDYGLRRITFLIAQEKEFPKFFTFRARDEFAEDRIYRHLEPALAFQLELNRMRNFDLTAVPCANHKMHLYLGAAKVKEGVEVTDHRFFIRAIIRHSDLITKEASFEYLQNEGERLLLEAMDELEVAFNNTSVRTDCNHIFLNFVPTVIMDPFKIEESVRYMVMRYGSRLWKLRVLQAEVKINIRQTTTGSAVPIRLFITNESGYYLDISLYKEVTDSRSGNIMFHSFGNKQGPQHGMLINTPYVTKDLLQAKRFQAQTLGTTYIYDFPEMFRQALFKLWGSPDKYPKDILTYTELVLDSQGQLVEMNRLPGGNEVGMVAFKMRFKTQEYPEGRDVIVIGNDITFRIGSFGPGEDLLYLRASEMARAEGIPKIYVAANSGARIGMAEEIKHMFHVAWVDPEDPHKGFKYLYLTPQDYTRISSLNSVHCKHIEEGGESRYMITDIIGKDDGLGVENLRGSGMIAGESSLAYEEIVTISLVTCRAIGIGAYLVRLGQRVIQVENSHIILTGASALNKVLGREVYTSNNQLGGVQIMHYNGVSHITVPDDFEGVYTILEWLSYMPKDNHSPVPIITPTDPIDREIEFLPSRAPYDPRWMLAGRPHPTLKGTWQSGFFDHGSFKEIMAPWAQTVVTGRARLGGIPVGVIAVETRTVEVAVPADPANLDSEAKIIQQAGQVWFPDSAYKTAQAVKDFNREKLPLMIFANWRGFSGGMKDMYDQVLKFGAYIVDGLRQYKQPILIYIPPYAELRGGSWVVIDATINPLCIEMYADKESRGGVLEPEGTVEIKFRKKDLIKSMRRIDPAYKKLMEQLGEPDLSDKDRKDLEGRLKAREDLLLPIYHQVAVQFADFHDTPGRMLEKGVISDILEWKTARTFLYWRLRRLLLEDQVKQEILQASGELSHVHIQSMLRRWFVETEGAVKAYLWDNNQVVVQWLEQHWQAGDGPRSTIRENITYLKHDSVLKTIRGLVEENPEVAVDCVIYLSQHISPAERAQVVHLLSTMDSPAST
Procedure: (§1) Preincubation of 6 μL enzyme together with 0.3 μL compound for 15 min was done before the reaction was initiated by the addition of 4 μL substrate. […] After 3 hr the reaction was stopped by addition of 60 μL of water followed by 30 μL Malachite Green solution. The Malachite Green solution was prepared by mixing 16.4 mL ammonium molybdate solution (7.5%), 1.64 mL Tween (11%) with 82 mL Malachite Green/H2SO4-solution (0.7 g Malachite Green to 1000 mL of 10% (v/v) H2SO4). Plates were left for 10 min at room temperature before reading the absorbance at 670 nm. All compounds were tested in triplicate at 10 different concentrations. Control compound (0, 50 and 100% effect) was included on each plate. […] An IC50 value was derived by non-linear regression curve fitting using the following equation: […]))) where A is the non-specific binding, B is the total binding, C is the IC50 and D is the slope. Saturation binding Kd and Bmax were derived using the equation y=((B1 max*x)/(Kd+x)).

[2] = biological target: Human recombinant Acetyl-CoA Carboxylase 1 (ACC1) (Homo sapiens, UniProt Q13085); assay: Assay Y: ACC1 inhibition, inorganic phosphate (Malachite Green); assay type: biochemical; conditions: Assay Y: room temperature, 3 hr, 15 min preincubation
Procedure: as §1

| IC50 [1] [µM] | IC50 [2] [µM] | SMILES |
| --- | --- | --- |
| 0.02 | 0.22 | CC(C)(C)OC(=O)NC[C@H]1CC[C@H](CNC(=O)c2cc(-c3cccc(CN)c3)nc3ccccc23)CC1 [Example 39, tert-Butyl [(trans-4-{[({2-[3-(aminomethyl)phenyl]quinolin-4-yl}carbonyl)amino]-methyl}cyclohexyl)methyl]carbamate] |
| 4.54 | 6.63 | CC(C)(C)OC(=O)NC[C@H]1CC[C@H](CNC(=O)c2ccnc(-c3ccccc3)c2)CC1 [Example 41, tert-Butyl [(trans-4-{[(2-phenylisonicotinoyl)amino]methyl}cyclohexyl)methyl]-carbamate] |
| 6.14 | 12.8 | COc1ccc(-c2cc(C(=O)NC[C@H]3CC[C@H](CNC(=O)OC(C)(C)C)CC3)ccn2)cc1 [Example 42, tert-Butyl {[trans-4-({[2-(4-methoxyphenyl)isonicotinoyl]amino}methyl)cyclo-hexyl]methyl}carbamate] |
| 5.82 | 8.31 | Cc1cc(C(=O)NC[C@H]2CC[C@H](CNC(=O)OC(C)(C)C)CC2)cc(-c2ccccc2)n1 [Example 43, tert-Butyl [(trans-4-{[(2-methyl-6-phenylisonicotinoyl)amino]methyl}cyclohexyl)-methyl]carbamate] |
| 9.71 | 13 | CC(C)(C)OC(=O)NC[C@H]1CC[C@H](CNC(=O)c2cncc(-c3ccccc3)c2)CC1 [Example 44, tert-Butyl {[trans-4-({[(5-phenylpyridin-3-yl)carbonyl]amino}methyl)cyclohexyl]-methyl}carbamate] |
| 4.35 | > 20 | CC(C)(C)OC(=O)NC[C@H]1CC[C@H](CNC(=O)c2ccnc(-c3cc4ccccc4s3)c2)CC1 [Example 45, tert-Butyl {[trans-4-({[2-(1-benzothiophen-2-yl)isonicotinoyl]amino}methyl)cyclo-hexyl]methyl}carbamate] |
| 9.53 | > 20 | CCOc1ccc(-c2cc(C(=O)NC[C@H]3CC[C@H](CNC(=O)OC(C)(C)C)CC3)ccn2)cn1 [Example 46, tert-Butyl {[trans-4-({[(6′-ethoxy-2,3′-bipyridin-4-yl)carbonyl]amino}methyl)cyclohexyl]methyl}carbamate] |
| 9.85 | 14.1 | COc1ccc(-c2cc(C(=O)NC[C@H]3CC[C@H](CNC(=O)OC(C)(C)C)CC3)ccn2)c(OC)c1 [Example 47, tert-Butyl {[trans-4-({[2-(2,4-dimethoxyphenyl)isonicotinoyl]amino}methyl)cyclohexyl]methyl}carbamate] |
| 9.67 | > 20 | COc1ccc(-c2cc(C(=O)NC[C@H]3CC[C@H](CNC(=O)OC(C)(C)C)CC3)ccn2)c(OC)n1 [Example 48, tert-Butyl {[trans-4-({[(2′,6′-dimethoxy-2,3′-bipyridin-4-yl)carbonyl]amino}methyl)-cyclohexyl]methyl}carbamate] |
| 9.87 | 7.6 | COc1ccc(-c2cc(C(=O)NC[C@H]3CC[C@H](CNC(=O)OC(C)(C)C)CC3)ccn2)cn1 [Example 49, tert-Butyl {[trans-4-({[(6′-methoxy-2,3′-bipyridin-4-yl)carbonyl]amino}methyl)cyclohexyl]methyl}carbamate] |

More lines, now with the values behind:

| SMILES | IC50 [1] [µM] | IC50 [2] [µM] |
| --- | --- | --- |
| COc1cccc(-c2cc(C(=O)NC[C@H]3CC[C@H](CNC(=O)OC(C)(C)C)CC3)c3ccccc3n2)c1 [Example 22, tert-Butyl ({trans-4-[({[2-(3-methoxyphenyl)quinolin-4-yl]carbonyl}amino)-methyl]cyclohexyl}methyl)carbamate] | 0.31 | 1.01 |
| COc1ccccc1-c1cc(C(=O)NC[C@H]2CC[C@H](CNC(=O)OC(C)(C)C)CC2)c2ccccc2n1 [Example 23, tert-Butyl ({trans-4-[({[2-(2-methoxyphenyl)quinolin-4-yl]carbonyl}amino)methyl]-cyclohexyl}methyl)carbamate] | 0.46 | 3.27 |
| CSc1ccc(-c2cc(C(=O)NC[C@H]3CC[C@H](CNC(=O)OC(C)(C)C)CC3)c3ccccc3n2)cc1 [Example 24, tert-Butyl [(trans-4-{[({2-[4-(methylthio)phenyl]quinolin-4-yl}carbonyl)amino]-methyl}cyclohexyl)methyl]carbamate] | 0.49 | 1.35 |
| Cc1nc(C)c(-c2cc(C(=O)NC[C@H]3CC[C@H](CNC(=O)OC(C)(C)C)CC3)c3ccccc3n2)s1 [Example 25, tert-Butyl ({trans-4-[({[2-(2,4-dimethyl-1,3-thiazol-5-yl)quinolin-4-yl]carbonyl}amino)-methyl]cyclohexyl}methyl)carbamate] | 0.14 | 1.68 |
| CCOC(=O)NC[C@H]1CC[C@H](CNC(=O)c2cc(-c3cnccn3)nc3ccccc23)CC1 [Example 26, Ethyl {[trans-4-({[(2-pyrazin-2-ylquinolin-4-yl)carbonyl]amino}methyl)cyclohexyl]-methyl}carbamate] | 4.03 | > 20 |
| CCOC(=O)NC[C@H]1CC[C@H](CNC(=O)c2cc(-c3cccc(OC)c3)nc3ccccc23)CC1 [Example 27, Ethyl ({trans-4-[({[2-(3-methoxyphenyl)quinolin-4-yl]carbonyl}amino)methyl]cyclo-hexyl}methyl)carbamate] | 1.18 | 3.59 |
| CCOC(=O)NC[C@H]1CC[C@H](CNC(=O)c2cc(-c3ccc(C)cc3)nc3ccccc23)CC1 [Example 28, Ethyl ({trans-4-[({[2-(4-methylphenyl)quinolin-4-yl]carbonyl}amino)methyl]cyclo-hexyl}methyl)carbamate] | 1.17 | 6 |
| CCOC(=O)NC[C@H]1CC[C@H](CNC(=O)c2cc(-c3ccc(SC)cc3)nc3ccccc23)CC1 [Example 29, Ethyl [(trans-4-{[({2-[4-(methylthio)phenyl]quinolin-4-yl}carbonyl)amino]methyl}-cyclohexyl)methyl]carbamate] | 1.26 | 4.04 |
| CCOC(=O)NC[C@H]1CC[C@H](CNC(=O)c2cc(-c3ccc(OCC)cc3)nc3ccccc23)CC1 [Example 30, Ethyl ({trans-4-[({[2-(4-ethoxyphenyl)quinolin-4-yl]carbonyl}amino)methyl]-cyclohexyl}methyl)carbamate] | 1.29 | > 20 |
| CCOC(=O)NC[C@H]1CC[C@H](CNC(=O)c2cc(-c3ccccc3OC)nc3ccccc23)CC1 [Example 31, Ethyl ({trans-4-[({[2-(2-methoxyphenyl)quinolin-4-yl]carbonyl}amino)methyl]-cyclohexyl}methyl)carbamate] | 3.56 | > 20 |
| CCOC(=O)NC[C@H]1CC[C@H](CNC(=O)c2cc(-c3ccc(Cl)cc3)nc3ccccc23)CC1 [Example 32, Ethyl ({trans-4-[({[2-(4-chlorophenyl)quinolin-4-yl]carbonyl}amino)methyl]cyclo-hexyl}methyl)carbamate] | 1.73 | > 20 |
| CC(C)(C)OC(=O)NC[C@H]1CC[C@H](CNC(=O)c2cc(-c3cncnc3)nc3ccccc23)CC1 [Example 33, tert-Butyl {[trans-4-({[(2-pyrimidin-5-ylquinolin-4-yl)carbonyl]amino}methyl)cyclo-hexyl]methyl}carbamate] | 1.14 | 3.51 |
| CC(C)(C)OC(=O)NC[C@H]1CC[C@H](CNC(=O)c2cc(-c3ccc(C#N)cc3)nc3ccccc23)CC1 [Example 34, tert-Butyl ({trans-4-[({[2-(4-cyanophenyl)quinolin-4-yl]carbonyl}amino)methyl]cyclo-hexyl}methyl)carbamate] | 0.22 | 1.17 |
| CC(C)(C)OC(=O)NC[C@H]1CC[C@H](CNC(=O)c2cc(Cl)nc3ccccc23)CC1 [Example 35, tert-butyl {[trans-4-({[(2-chloroquinolin-4-yl)carbonyl]amino}methyl)cyclohexyl]-methyl}carbamate] | 3.84 | 9.96 |
| COc1cc(C(=O)NC[C@H]2CC[C@H](CNC(=O)OC(C)(C)C)CC2)cc(-c2ccc(CN)cc2)n1 [Example 36, tert-Butyl ({trans-4-[({2-[4-(aminomethyl)phenyl]-6-methoxyisonicotinoyl}-amino)methyl]cyclohexyl}methyl)carbamate] | 1.59 | 3.95 |
| CC(C)(C)OC(=O)NC[C@H]1CC[C@H](CNC(=O)c2cc(-c3ccc(CN)cc3)ncc2Cl)CC1 [Example 37, tert-Butyl ({trans-4-[({2-[4-(aminomethyl)phenyl]-5-chloroisonicotinoyl}amino)-methyl]cyclohexyl}methyl)carbamate] | 0.47 | 3.69 |
| Cc1cc(C(=O)NC[C@H]2CC[C@H](CNC(=O)OC(C)(C)C)CC2)cc(-c2ccc(CN)cc2)n1 [Example 38, tert-Butyl ({trans-4-[({2-[4-(aminomethyl)phenyl]-6-methylisonicotinoyl}amino)-methyl]cyclohexyl}methyl)carbamate] | 4.05 | 5.44 |
| CC(C)(C)OC(=O)NC[C@H]1CC[C@H](CNC(=O)c2cc(-c3cccc(CC(=O)O)c3)nc3ccccc23)CC1 [Example 40, [3-(4-{[(trans-4-{[(tert-Butoxycarbonyl)amino]methyl}cyclohexyl)methyl]-carbamoyl}quinolin-2-yl)phenyl]acetic Acid] | 1 | 8.64 |
